Measurements reported in patent US20220062255A1 (PRILENIA NEUROTHERAPEUTICS LTD., priority 2016, published 2022).
“And” between values parts separate entries of the source, which are not always exact repeats. Equal entries are not always repeated. Where two headings read alike, the source gives them in different places.

Columns and labels:
glaucoma = details: long-term oral administration; paper example
[1] = system: laser coagulation (LC) model of experimental glaucoma; details: for Area under curve (AUC) of IOP, Total Area: lasered eyes, vehicle 272, contralateral control 185
Experimental: (§1) Unilateral induction of IOP elevation was performed twice, at day 0 and day 7. IOP increase was induced by 532 nm diode laser (Oculight® TX; Iridex) photocoagulation of episcleral veins, as previously described. IOP was measured with a TonoLab tonometer.
(§2) IOP was measured at baseline, and after laser photocoagulation on days 1, 4, 7, 8, and 14 (FIG. 10).

RGCs [2] = details: topical to the HSI treated eye, paper example
optic neuropathy = details: long-term oral administration; paper example
[3] = system: BDNF secretion from B104 neuroblastoma cells; details: in-situ ELISA; Geva, et al. 2016; cited from earlier work
optic nerve axons = details: for Number of optic nerve axons, Lasered eye, Mean / Number of optic nerve axons, Control eye, Mean / loss of optic nerve axons, Difference % (LC eye vs control eye): day 14; for Number of optic nerve axons, Control eye, Mean: contralateral eye; for loss of optic nerve axons, Difference % (LC eye vs control eye): vehicle 27.5% in text; for Axonal protection (%): vs vehicle group
Experimental: Neuroprotective preservation of visual function in glaucoma and other optic neuropathies depends not only on preservation of cell bodies, but also on maintaining connectivity between the eye and the brain. Connectivity is preserved by protecting RGC axons which make up the optic nerve. […] Unilateral induction of IOP elevation was performed twice, at day 0 and day 7. IOP increase was induced by 532 nm diode laser (Oculight® TX; Iridex) photocoagulation of episcleral veins, as previously described. IOP was measured with a TonoLab tonometer.
IOP was measured at baseline, and after laser photocoagulation on days 1, 4, 7, 8, and 14.
On day 14, rats were sacrificed by transcardial perfusion, first with 0.9% NaCl solution, then with 4% PFA in 0.1M phosphate buffer, pH 7.4. Eyes and optic nerves were collected for immunohistochemical analysis.
Optic nerves were postfixed in 4% PFA (in 0.1M phosphate buffer, pH 7.4), placed in 1% osmium, dehydrated in ascending alcohol concentrations, and placed in 1% uranyl acetate in 100% ethanol for 1 hour. Optic nerves were embedded in epoxy resin mixture at 60° C. for 48 hours and 1 μm sections prepared. Axon number was estimated using stereology.
High IOPs immediately after LC procedure could be associated with retinal ischemia, and low IOP's could indicate failure to establish the model.

retinitis pigmentosa = details: periodic oral administration; paper example
RGCs [4] = details: day 14; for number of RGCs per retinal area, Control eye, Mean: contralateral eye; for RGC Difference % (decrease, lasered vs control eye): vehicle 16.7%
Experimental: In Wistar rats, the laser coagulation (LC) model of experimental glaucoma was utilized.
as §1, §2
On day 14, rats were sacrificed by transcardial perfusion, first with 0.9% NaCl solution, then with 4% PFA in 0.1M phosphate buffer, pH 7.4. Eyes and optic nerves were collected for immunohistochemical analysis. The number of RGCs was quantified using immunofluorescent staining for RNA-binding protein with multiple splicing (RBPMS), an RGC-specific marker, and DAPI nuclear stain followed by stereological analysis of the entire retina (FIG. 11).

dry AMD = details: long-term oral administration; paper example
Description: The pathological correlation for the decline of visual acuity is the progressive expansion of the degenerated area of the retina (i.e., geographic atrophy), specifically in the macula.

[5] = system: Retinal Ganglion Cells (RGCs); details: for RGC Loss (%): day 41, OD (OHT) vs OS eye, mean±SEM, DDW control 43±6%; for RGC neuroprotection (%): vs DDW control
Experimental: In this model, sclerosis of the aqueous veins via retrograde introduction of hypertonic saline increases intraocular pressure (IOP). Hypertonic saline injection (HSI) was performed on day 0 and day 7 into the episcleral veins of the right eye of pigmented Brown Norway. Rats were sedated with ketamine and xylazine (40-80 and 5-10 mg/kg, respectively), kept warm and eyes moist to avoid desiccation during the procedure. Eye surface was treated with erythromycin (0.5%). On Days 0 and 7, hypertonic saline solution (250 μL, NaCl, 1.8-2.0M) was injected into the limbal vascular plexus via different episcleral veins in the OHT eye. For IOP measurement, corneas were anaesthetized with 0.5% proparacaine HCl ophthalmic solution and then IOP measured using a Tono-Pen Vet. Ten repeated readings were averaged from each eye. […] Over the course of the study, animals were clinically evaluated daily, and IOP and body weight measured weekly (FIG. 1).
The number of RGCs was quantified using immunofluorescent staining for the RGC marker brain-specific homeobox/POU domain protein 3A (Brn-3a), followed by image analysis. Eyes were immediately enucleated following CO2 euthanization and fixed in paraformaldehyde (PFA, 4%) at 4° C. for 24 hours, then dissected in PBS. Retinas were permeabilized in PBS+0.5% Triton X-100 for 15 minutes, frozen at −80° C. for 15 minutes, then rinsed in PBS-0.5% Triton. […] Four radial cuts were made in the retina and it was flat-mounted. Two regions of interest (medial and distal) were acquired in each quadrant (FIG. 3) with fluorescent microscopy, and RGCs counted using ImageJ.
The percent of RGC loss was calculated by comparing the number of RGC counts per retina in the OD eye to that in the OS eye from the same animal. […] RGC neuroprotection (%) in each animal was calculated as following: [100×((1−RGC Loss (%)/Average RGC Loss (%) in Control group))]. […] Representative images of RGC staining can be seen in FIG. 5.

wet AMD = details: long-term oral administration; paper example
[6] = system: BDNF secretion from B104 neuroblastoma cells; assay: BDNF in-situ ELISA, B104 neuroblastoma cells; type: cell-based, rat; details: together with pridopidine
Sigma-1 Receptor (S1R) = biological target: T1, Sigma-1 Receptor (S1R) (Homo sapiens, UniProt Q99720); assay: In-vitro binding assay, Sigma-1 receptor; details: Cheng Prusoff; Eurofins Panlabs; source Johnston et al. 2019 and NC20-PHARM-2
T1 construct: Eurofins Panlabs Taiwan; Ltd. (performed the assay)
T1 sequence (Q99720 whole entry, species assumed): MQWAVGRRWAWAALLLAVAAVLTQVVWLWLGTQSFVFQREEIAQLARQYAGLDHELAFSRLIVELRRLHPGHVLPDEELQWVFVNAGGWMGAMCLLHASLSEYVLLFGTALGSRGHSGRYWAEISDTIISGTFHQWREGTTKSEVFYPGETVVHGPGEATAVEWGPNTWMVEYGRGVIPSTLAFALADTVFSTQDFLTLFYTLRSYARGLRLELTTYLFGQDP
Experimental: (§3) In-vitro binding assays performed at Eurofins Panlabs Taiwan. Ltd. Specific ligand binding was determined in the presence of an excess of unlabelled ligand.

Sigma-2 receptor (S2R) = biological target: T2, Sigma-2 receptor (S2R) (Homo sapiens, UniProt Q5BJF2); assay: In-vitro binding assay, Sigma-2 receptor; details: Cheng Prusoff; Eurofins Panlabs; source Johnston et al. 2019 and NC20-PHARM-2
T2 construct: Eurofins Panlabs Taiwan; Ltd. (performed the assay)
T2 sequence (Q5BJF2 whole entry, species assumed): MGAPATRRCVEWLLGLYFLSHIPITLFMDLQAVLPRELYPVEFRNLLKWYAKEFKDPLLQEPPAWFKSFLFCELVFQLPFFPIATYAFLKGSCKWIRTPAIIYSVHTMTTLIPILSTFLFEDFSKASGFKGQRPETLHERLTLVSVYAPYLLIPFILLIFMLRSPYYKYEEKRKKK
Experimental: as §3

CCCN1CCC(c2cccc(S(C)(=O)=O)c2)CC1 [Pridopidine, 4-(3-(Methylsulfonyl)phenyl)-1-propylpiperidine]
efficacy in glaucoma patients (glaucoma): effective in treating human patients with glaucoma | Area under curve (AUC) of IOP, Total Area ([1]; 3 mg/kg oral daily): 255 | Area under curve (AUC) of IOP, Total Area ([1]; 30 mg/kg oral daily): 289 | Area under curve (AUC) of IOP, Total Area ([1]; 60 mg/kg oral daily): 295 | effect on IOP of lasered eyes ([1]; 3, 30 and 60 mg/kg oral daily, one-way ANOVA, P≥0.26): no difference in the IOP of lasered eyes | viability of the RGCs and RGC loss (RGCs [2]; groups 2, 3 and 4 vs group 1): significantly increases viability of the RGCs and reduces RCG loss | protection of RGC axons (RGCs [2]): protects RGC axons | efficacy in optic neuropathy patients (optic neuropathy): effective in treating human patients with optic neuropathy | BDNF secretion in rat neuroblastoma cells [3]: dose dependent increase in BDNF secretion | Number of optic nerve axons, Lasered eye, Mean (optic nerve axons; 3 mg/kg oral daily): 358 | Number of optic nerve axons, Control eye, Mean (optic nerve axons; 3 mg/kg oral daily): 394 | loss of optic nerve axons, Difference % (LC eye vs control eye) (optic nerve axons; 3 mg/kg oral daily): 8.6% | Axonal protection (%) (optic nerve axons; 3 mg/kg oral daily): 69% | Number of optic nerve axons, Lasered eye, Mean (optic nerve axons; 30 mg/kg oral daily): 363 | Number of optic nerve axons, Control eye, Mean (optic nerve axons; 30 mg/kg oral daily): 433 | loss of optic nerve axons, Difference % (LC eye vs control eye) (optic nerve axons; 30 mg/kg oral daily): 15% | Axonal protection (%) (optic nerve axons; 30 mg/kg oral daily): 45% | Number of optic nerve axons, Lasered eye, Mean (optic nerve axons; 60 mg/kg oral daily): 365 | Number of optic nerve axons, Control eye, Mean (optic nerve axons; 60 mg/kg oral daily): 395 | loss of optic nerve axons, Difference % (LC eye vs control eye) (optic nerve axons; 60 mg/kg oral daily): 7.24% and 7.6% | Axonal protection (%) (optic nerve axons; 60 mg/kg oral daily): 74% | efficacy in retinitis pigmentosa patients (retinitis pigmentosa): effective in treating human patients with retinitis pigmentosa | number of RGCs per retinal area, Lasered eye, Mean (RGCs [4]; 3 mg/kg oral daily): 1315 | number of RGCs per retinal area, Control eye, Mean (RGCs [4]; 3 mg/kg oral daily): 1404 | RGC Difference % (decrease, lasered vs control eye) (RGCs [4]; 3 mg/kg oral daily): 5.2% | number of RGCs per retinal area, Lasered eye, Mean (RGCs [4]; 30 mg/kg oral daily): 1336 | number of RGCs per retinal area, Control eye, Mean (RGCs [4]; 30 mg/kg oral daily): 1444 | RGC Difference % (decrease, lasered vs control eye) (RGCs [4]; 30 mg/kg oral daily): 7.7% | number of RGCs per retinal area, Lasered eye, Mean (RGCs [4]; 60 mg/kg oral daily): 1198 | number of RGCs per retinal area, Control eye, Mean (RGCs [4]; 60 mg/kg oral daily): 1417 | RGC Difference % (decrease, lasered vs control eye) (RGCs [4]; 60 mg/kg oral daily): 13.9% | efficacy in dry AMD patients (dry AMD): effective in treating human patients with dry AMD | RGC Loss (%) ([5]; 3 mg/kg oral daily): 25±7% and 25% | RGC neuroprotection (%) ([5]; 3 mg/kg oral daily): 42% | RGC Loss (%) ([5]; 30 mg/kg oral daily): 21±6% and 21% | RGC neuroprotection (%) ([5]; 30 mg/kg oral daily): 50% | RGC Loss (%) ([5]; 60 mg/kg oral daily): 7±9% and 7% | RGC neuroprotection (%) ([5]; 60 mg/kg oral daily): 83% | efficacy in wet AMD patients (wet AMD): effective in treating human patients with wet AMD

CCCN1CCC(O)(c2cccc(S(C)(=O)=O)c2)CC1 [Compound 1]
effect with pridopidine on BDNF secretion [6]: synergistic effect | Ki (Sigma-1 Receptor (S1R)): 0.37 µM | Ki (Sigma-2 receptor (S2R)): > 100 µM

CCCN1CC[C@@H](c2cccc(S(C)(=O)=O)c2)[C@@H](O)C1 [Compound 4]
effect with pridopidine on BDNF secretion [6]: synergistic effect | Ki (Sigma-1 Receptor (S1R)): 2.9 µM | Ki (Sigma-2 receptor (S2R)): > 100 µM
